Reference: US12337037B2, “Taxol conjugate compounds, pharmaceutical compositions comprising the same, and methods for their use” (N1 Life, Inc, priority 2021, dated 2025)
Entries after “also recorded” stand apart in the source; their conditions may differ. Like-named read-outs stand apart in the source and are kept apart here.

Legend:
[1] = system: HCT116 human colorectal carcinoma cell; assay: cells
Procedure: (§1) Cytotoxicity Assay—CCK8 Cancer Cells
(§2) The CCK-8 assay was applied to study the cytotoxicity of the peptide drug conjugates and their inhibition of proliferation of cancer cells. First, 2˜10×10^3 cells (depending on the rate of growth of different cell lines) with 100 μL, DMEM media were seeded in normal culture medium into each well of a 96-well plate. The cells were then cultured overnight at 37° C. with 4˜5% CO2. Different doses (4000, 2000, 1000, 500 nM for Hep3B, Hep G2 and MCF7/MBA-MD-231; 1000, 333.3, 100.0, 33.33, 3.333, 1.000, 0.333 nM for MCF7/ADR, 22Rv1, CNE1, HCT116, DLD-1) of Taxol and peptide drugs were added. After 48˜72 hour incubation, CCK-8 solution was added to each well. The cells were then incubated at 37° C. for 4 hours. The optical density was measured at 450/650 nm using a multiscan spectrometer (PerkinElmer's EnSpire Multilabel Plate Reader). The optical density is linearly proportional to the number of living cells in the sample:
(§3) The plate layout for MCF7/ADR, 22Rv1, CNE1, HCT116, DLD-1 cell lines is shown below.

[2] = system: CNE1 nasopharyngeal carcinoma cell line; assay: cells; settings: read-out: IC50 nM
Procedure: as §1, §2, §3

[3] = system: MCF7/ADR multidrug-resistant breast cancer cell; assay: cells; settings: read-out: IC50 nM
Procedure: as §1, §2, §3

[4] = system: DLD-1 colorectal adenocarcinoma cell line; assay: cells
Procedure: as §1, §2, §3

[5] = system: 22Rv1 human prostate carcinoma epithelial cell line; assay: cells
Procedure: as §1, §2, §3

[6] = system: Human ovarian cancer (SKOV-3-GFP) cells; assay: Efficacy in metastatic ovarian cancer model (peritoneal disseminated metastasis); type: in vivo, Female athymic nude mice; settings: for acute toxic effect / animal death: ovarian cancer model; for mean tumor fluorescence area as % of the Vehicle (PBS) group / Average tumor area on day 0 (MEAN ± SD) / Average tumor area on day 21 (MEAN ± SD) / Mean tumor mass (g) (MEAN ± SD) / Average tumor inhibitory rate (%) (MEAN ± SD): Taxol 10 mg/kg; for mean tumor fluorescence area as % of the Vehicle (PBS) group: Compound 3 / Compound 5 9.6 mg/kg IP Q5D; for Average tumor area on day 0 (MEAN ± SD): baseline fluorescence area; for Average tumor area on day 21 (MEAN ± SD): fluorescence area; for Mean tumor mass (g) (MEAN ± SD): conjugate 9.6 mg/kg IP Q5D; for Average tumor inhibitory rate (%) (MEAN ± SD): from final tumor weights
Procedure: The tumor samples were then stored in formalin solution.
Method: The method was the same as described for Biological Example 4.
Endpoint tumor load of each group: At Day 21 after administration, the tumor load of each group was calculated by dissecting and weighing the tumor in the abdominal cavity. The vehicle was the control.
Tumor inhibitory rate (IR): Tumor IR was calculated based on the final average tumor weights according to the formula: IR (%)=(1-treatment(t)/control(c))×100

[7] = system: liver cancer Hep 3B cells; assay: CCK-8 cytotoxicity / anti-proliferation assay, Hep 3B; type: cell-based; settings: for Anti-proliferation %: 4 μM
Procedure: as §1
as §2, with “sample: […]” for “sample:”

[8] = read-out: IC50 nM, HCT116 cells
[9] = Table 8A (Compound 3 set), Compd 3 9.6 mg/kg IP Q5D
[10] = Table 9B (titled Compound 5 set), Day 21
[11] = Table 10A (Compound 3 set), Day 21, Compd 3 9.6 mg/kg IP Q5D
[12] = Table 8B (Compound 5 set), Compd 5 9.6 mg/kg IP Q5D
[13] = Table 9A (titled Compound 3 set), Day 21
[14] = Table 10B (Compound 5 set), Day 21, Compd 5 9.6 mg/kg IP Q5D

| Compound | IC50 [1, 8] [nM] | IC50 ([2]; CNE1 cells) [nM] | IC50 ([3]; MCF7/ADR cells) [nM] | IC50 ([4]; read-out: IC50 nM, DLD-1 cells) [nM] | IC50 ([5]; read-out: IC50 nM, 22Rv1 cells) [nM] | acute toxic effect / animal death ([6]; 9.6 mg/kg IP Q5D) | mean tumor fluorescence area as % of the Vehicle (PBS) group ([6]; Day 21) | Average tumor area on day 0 (MEAN ± SD) [6, 9] | Average tumor area on day 21 (MEAN ± SD) [6, 9] | Mean tumor mass (g) (MEAN ± SD) [6, 10] | Average tumor inhibitory rate (%) (MEAN ± SD) [6, 11] | Anti-proliferation % [7] [%] | Average tumor area on day 0 (MEAN ± SD) [6, 12] | Average tumor area on day 21 (MEAN ± SD) [6, 12] | Mean tumor mass (g) (MEAN ± SD) [6, 13] | Average tumor inhibitory rate (%) (MEAN ± SD) [6, 14] | other results |
| --- | --- | --- | --- | --- | --- | --- | --- | --- | --- | --- | --- | --- | --- | --- | --- | --- | --- |
| CC(=O)N[C@@H](CSSCCCC(=O)OC(C(=O)O[C@H]1C[C@@]2(O)[C@@H](OC(=O)c3ccccc3)[C@@H]3[C@]4(OC(C)=O)CO[C@@H]4C[C@H](O)[C@@]3(C)C(=O)[C@H](OC(C)=O)C(=C1C)C2(C)C)[C@@H](NC(=O)c1ccccc1)c1ccccc1)C(=O)N[C@H](CCCNC(=N)N)C(=O)N[C@H](CCCNC(=N)N)C(=O)N[C@H](CCCNC(=N)N)C(=O)N[C@H](CCCNC(=N)N)C(=O)N[C@H](CCCNC(=N)N)C(=O)N[C@H](CCCNC(=N)N)C(=O)N[C@H](CCCNC(=N)N)C(=O)N[C@H](CCCNC(=N)N)C(N)=O (stereo partly drawn) [Compound 3, Ac-L-Cysteine (paclitaxel-4-mercaptobutanoate)-D-Arginine8-NH2] | 21.5 | 15.9 | 438 | 62 | 21.6 | no obvious acute toxic effect | about 20% | 18.6 ± 5.3 | 30.9 ± 24.2 | 0.2555 ± 0.1388 | 90±8 | 36.0 | – | – | – | – | tumor inhibition effect, better than Compound 5 ([6]; 9.6 mg/kg): at least 10%; average tumor fluorescence area as % of the Taxol (10 mg/kg) group ([6]; Day 21, 9.6 mg/kg IP Q5D): about 100%; average tumor weight as % of the Vehicle group ([6]; Day 21, 9.6 mg/kg IP Q5D): about 10%; Average tumor inhibitory rate (%) (MEAN ± SD) ([6]; Table 10A (Compound 3 set), Day 21, Compd 3 9.6 mg/kg IP Q5D, listed as Compd 3): 90 ± 8%; cancer cell inhibition compared to Compound 5 (FIG. 2A) ([7]; all tested concentrations (500-4000 nM)): substantially superior to cancer cell inhibition compared to Compound 5 at all tested concentrations |
| CC(=O)N[C@H](CSSCCCC(=O)O[C@@H](C(=O)O[C@H]1C[C@@]2(O)[C@@H](OC(=O)c3ccccc3)[C@@H]3[C@]4(OC(C)=O)CO[C@@H]4C[C@H](O)[C@@]3(C)C(=O)[C@H](OC(C)=O)C(=C1C)C2(C)C)[C@@H](NC(=O)c1ccccc1)c1ccccc1)C(=O)N[C@H](CCCNC(=N)N)C(=O)N[C@H](CCCNC(=N)N)C(=O)N[C@H](CCCNC(=N)N)C(=O)N[C@H](CCCNC(=N)N)C(=O)N[C@H](CCCNC(=N)N)C(=O)N[C@H](CCCNC(=N)N)C(=O)N[C@H](CCCNC(=N)N)C(=O)N[C@H](CCCNC(=N)N)C(N)=O [Compound 5, Ac-D-Cysteine (paclitaxel-4-mercaptobutanoate)-D-Arginine8-NH2] | 23.5 | 19.3 | > 1000 | 110 | 29.3 | caused animal death; also recorded: one animal died at Day 18 | 10% | – | – | – | – | 23.2 | 24.9 ± 6.6 | 28.7 ± 19.8 | 0.178 ± 0.143 | 79±11 | tumor inhibitory effect, less effective than Taxol ([6]; 9.6 mg/kg vs Taxol 10 mg/kg): about 10%; Average tumor inhibitory rate (%) (MEAN ± SD) ([6]; Table 10B (Compound 5 set), Day 21, Compd 5 9.6 mg/kg IP Q5D, listed as Compd 5): 79 ± 11% |
| CC(=O)O[C@H]1C(=O)[C@@]2(C)[C@H]([C@H](OC(=O)c3ccccc3)[C@]3(O)C[C@H](OC(=O)[C@H](O)[C@@H](NC(=O)c4ccccc4)c4ccccc4)C(C)=C1C3(C)C)[C@]1(OC(C)=O)CO[C@@H]1C[C@@H]2O [Taxol, paclitaxel] | – | – | – | – | – | – | 8-16% | 18.4 ± 3.3 | 24.8 ± 27.1 | 0.1970 ± 0.1248 | 90 ± 8 | 11.5 | 22.8 ± 4.1 | 22.7 ± 15.5 | 0.174 ± 0.141 | 84 ± 10 | IC50 ([1]; Homo sapiens, HCT-116, read-out: IC50 nM): 2.79 nM; IC50 [2]: 1.12 nM; IC50 ([3]; Homo sapiens, NCI/ADR-RES): > 1000 nM; IC50 ([4]; Homo sapiens, DLD-1, read-out: IC50 nM): 9.98 nM; IC50 ([5]; Homo sapiens, 22Rv1, read-out: IC50 nM): 4.95 nM |
